Where two headings read alike, the source gives them in different places.
Legend:
[1] = tested on: MDD patients carrying the indicated SNP
From the text: The term “prevalence” as used in FIG. 8B refers to the total percentage of MDD patients who carry the SNP as indicated in this particular study.

[2] = tested on: MDD patients, remitters at end of double-blind phase; conditions: for Relapsers (HAM-D-17 > 15) during 12-month maintenance phase: 15 mg/day as adjuvant
Method: During each visit, patients are administered the HAM-D-28, the CGI, the QIDS-SR, the SAFTEE-SI, the MGH-CPFQ, and the MGH-SFQ (See, e.g., Table 10 below). […] Subjects are also allowed to change their antidepressant during the course of the follow-up, if deemed appropriate. For patients who refuse the 12 months of free follow-up care, a referral to a psychiatrist is offered.

[3] = tested on: SSRI-resistant outpatients with major depressive disorder (MDD)
Method: Documentation of the presence of any side effect or adverse event is completed at every visit using the SAFTEE-SI. Subjects can contact a clinician at any time between visits concerning adverse events or worsening of symptoms. Suicidal ideation is assessed at each visit. Subjects who are felt by the study clinician to be at high risk for suicide are discontinued from the study and referred for hospitalization and further treatment if clinically indicated (See Tables 4 & 5 below).
One-way analysis of variance can be used to assess differences in total number of SAFTEE-SI AEs between baseline and endpoint.

[4] = DRD2 (H313H) rs6275 (TT), genotype code 11
[5] = DRD2 (SLC26A9) rs11240594 (AG), genotype code 33
[6] = DRD2 (Taq1Br) rs1079596 (TC), genotype code 42/44
[7] = DRD2 (Taq1Br) rs1079596 (TC), genotype code 42
[8] = FDRC rs2277820 (TC), genotype code 22
[9] = GCH1 rs8007267 (TC), genotype code 42
[10] = GCHFR rs7163862 (TA), genotype code 41
[11] = GCPH or FOLH1 rs202676 (AG), genotype code 31
[12] = MTHFD 1 G1958A (R653Q) rs2236225 (AG), genotype code 33
[13] = MTHFR G1793A rs2274976 (GA), genotype code 42
[14] = PCYT1A rs7639752 (AA), genotype code 11
[15] = RCF1 (in SLC19A1) rs1051266 (AA), genotype code 44
[16] = RCF1 A > G rs2297291 (AA), genotype code 11
[17] = RCF2 (in SLC19A1) rs12659 (TT), genotype code 11
[18] = Trial 2, 15 mg + SSRI, versus placebo

CN1c2c(nc(N)[nH]c2=O)NC[C@@H]1CNc1ccc(C(=O)N[C@@H](CCC(=O)O)C(=O)O)cc1 [6(S)-5-MTHF, 6(S)-5-methyltetrahydrofolate]
PHASE I EFFFCT, change in HAMD-28 [1, 4]: −16.560 | PHASE II EFFFCT, change in HAMD-28 [1, 4]: 1.667 | POOLED PHASES EFFFCT, change in HAMD-28 [1, 4]: −7.627 | PHASE I EFFFCT, change in HAMD-28 [1, 5]: −5.018 | PHASE II EFFFCT, change in HAMD-28 [1, 5]: −3.424 | POOLED PHASES EFFFCT, change in HAMD-28 [1, 5]: −3.758 | PHASE I EFFFCT, change in HAMD-28 [1, 6]: −10.640 | PHASE II EFFFCT, change in HAMD-28 [1, 6]: −3.893 | POOLED PHASES EFFFCT, change in HAMD-28 [1, 6]: −6.903 | PHASE I EFFFCT, change in HAMD-28 [1, 7]: −10.640 | PHASE II EFFFCT, change in HAMD-28 [1, 7]: −3.893 | POOLED PHASES EFFFCT, change in HAMD-28 [1, 7]: −6.903 | PHASE I EFFFCT, change in HAMD-28 [1, 8]: −2.634 | PHASE II EFFFCT, change in HAMD-28 [1, 8]: −6.232 | POOLED PHASES EFFFCT, change in HAMD-28 [1, 8]: −4.027 | PHASE I EFFFCT, change in HAMD-28 [1, 9]: −7.729 | PHASE II EFFFCT, change in HAMD-28 [1, 9]: −5.417 | POOLED PHASES EFFFCT, change in HAMD-28 [1, 9]: −6.654 | PHASE I EFFFCT, change in HAMD-28 [1, 10]: −6.280 | PHASE II EFFFCT, change in HAMD-28 [1, 10]: −4.542 | POOLED PHASES EFFFCT, change in HAMD-28 [1, 10]: −4.863 | PHASE I EFFFCT, change in HAMD-28 [1, 11]: −7.314 | PHASE II EFFFCT, change in HAMD-28 [1, 11]: −3.300 | POOLED PHASES EFFFCT, change in HAMD-28 [1, 11]: −5.402 | PHASE I EFFFCT, change in HAMD-28 [1, 12]: −2.742 | PHASE II EFFFCT, change in HAMD-28 [1, 12]: −3.762 | POOLED PHASES EFFFCT, change in HAMD-28 [1, 12]: −3.496 | PHASE I EFFFCT, change in HAMD-28 [1, 13]: −5.333 | PHASE II EFFFCT, change in HAMD-28 [1, 13]: 2.833 | POOLED PHASES EFFFCT, change in HAMD-28 [1, 13]: −5.551 | PHASE I EFFFCT, change in HAMD-28 [1, 14]: −10.400 | PHASE II EFFFCT, change in HAMD-28 [1, 14]: −3.900 | POOLED PHASES EFFFCT, change in HAMD-28 [1, 14]: −6.716 | PHASE I EFFFCT, change in HAMD-28 [1, 15]: −10.000 | PHASE II EFFFCT, change in HAMD-28 [1, 15]: −2.750 | POOLED PHASES EFFFCT, change in HAMD-28 [1, 15]: −7.673 | PHASE I EFFFCT, change in HAMD-28 [1, 16]: −8.778 | PHASE II EFFFCT, change in HAMD-28 [1, 16]: −1.400 | POOLED PHASES EFFFCT, change in HAMD-28 [1, 16]: −5.458 | PHASE I EFFFCT, change in HAMD-28 [1, 17]: −7.571 | PHASE II EFFFCT, change in HAMD-28 [1, 17]: −1.400 | POOLED PHASES EFFFCT, change in HAMD-28 [1, 17]: −4.860 | Relapsers (HAM-D-17 > 15) during 12-month maintenance phase ([2]; Trial 1, 2 remitters entering maintenance): 0 | Relapsers (HAM-D-17 > 15) during 12-month maintenance phase ([2]; Trial 2, 9 remitters entering maintenance): 0 | relapse during 12-month maintenance phase ([2]; remitters at end of double-blind phase, 15 mg/day adjunctive): did not have a relapse | number of adverse events (SAFTEE-SI) ([3]; SSRI + 15 mg/day versus SSRI + placebo): no significant differences in the number of adverse events | discontinuation due to overall adverse side-effects or exclusion events ([3]; Trial 2): no difference in discontinuation | Cardiovascular side effects, Frequency ([3]; Trial 2, 15 mg + SSRI, n = 42): 0 | Cardiovascular side effects, Frequency (%) ([3]; Trial 2, 15 mg + SSRI, n = 42): (0%) | Gastrointestinal side effects, Frequency ([3]; Trial 2, 15 mg + SSRI, n = 42): 7 | Gastrointestinal side effects, Frequency (%) ([3]; Trial 2, 15 mg + SSRI, n = 42): (16.7%) | Infectious side effects, Frequency ([3]; Trial 2, 15 mg + SSRI, n = 42): 5 | Infectious side effects, Frequency (%) ([3]; Trial 2, 15 mg + SSRI, n = 42): (11.9%) | Miscellaneous side effects, Frequency ([3]; Trial 2, 15 mg + SSRI, n = 42): 1 | Miscellaneous side effects, Frequency (%) ([3]; Trial 2, 15 mg + SSRI, n = 42): (2.4%) | Psychological side effects, Frequency ([3]; Trial 2, 15 mg + SSRI, n = 42): 4 | Psychological side effects, Frequency (%) ([3]; Trial 2, 15 mg + SSRI, n = 42): (9.5%) | Sexual side effects, Frequency ([3]; Trial 2, 15 mg + SSRI, n = 42): 1 | Sexual side effects, Frequency (%) ([3]; Trial 2, 15 mg + SSRI, n = 42): (2.4%) | Sleep side effects, Frequency ([3]; Trial 2, 15 mg + SSRI, n = 42): 1 | Sleep side effects, Frequency (%) ([3]; Trial 2, 15 mg + SSRI, n = 42): (2.4%) | Somatic side effects, Frequency ([3]; Trial 2, 15 mg + SSRI, n = 42): 6 | Somatic side effects, Frequency (%) ([3]; Trial 2, 15 mg + SSRI, n = 42): (14.3%) | Cardiovascular side effects, NNH [3, 18]: =placebo | Gastrointestinal side effects, NNH [3, 18]: 53 | Infectious side effects, NNH [3, 18]: <placebo | Miscellaneous side effects, NNH [3, 18]: <placebo | Psychological side effects, NNH [3, 18]: <placebo | Sexual side effects, NNH [3, 18]: 98 | Sleep side effects, NNH [3, 18]: <placebo | Somatic side effects, NNH [3, 18]: <placebo

Source: patent US9546401B2, “Assays and methods for selecting a treatment regimen for a subject with depression” (The General Hospital Corporation, priority 2011, dated 2017)
